Data reported in patent publication US7456133B2, “Substituted arylketones” (Bayer CropScience AG, priority 2001, dated 2008).

What was measured:
[1] = Log P by reversed-phase HPLC (C 18), acidic range; assay type: physicochemical; conditions: reversed-phase HPLC column (C 18); given in the preparation examples, acidic or neutral range not given
Description: Log P values given in the tables were determined in accordance with EEC Directive 79/831 Annex V.A8 by HPLC (High Performance Liquid Chromatography) using a reversed-phase column (C 18). Temperature: 43° C. (a) Mobile phases for the determination in the acidic range: 0.1% aqueous phosphoric acid, acetonitrile; linear gradient from 10% acetonitrile to 90% acetonitrile—the corresponding measurement results in Tables 1 and 2 are labelled^a).

weeds [2] = test: Pre-emergence test, damage to weeds; assay type: in vivo; conditions: soil sprayed 24 hours after sowing, rated after three weeks
Description: Solvent: 5 parts by weight of acetone
(§1) Emulsifier: 1 part by weight of alkylaryl polyglycol ether
(§2) To produce a suitable preparation of active compound, 1 part by weight of active compound is mixed with the stated amount of solvent, the stated amount of emulsifier is added and the concentrate is diluted with water to the desired concentration.
Seeds of the test plants are sown in normal soil. After 24 hours, the soil is sprayed with the preparation of active compound such that the particular amount of active compound desired is applied per unit area. The concentration of active compound in the spray liquor is chosen such that the particular amount of active compound desired is applied in 1000 litres of water per hectare.
(§3) After three weeks, the degree of damage to the plants is rated in % damage in comparison to the development of the untreated control. The figures denote: • 0%=no effect (like untreated control) • 100%=total destruction

weeds [3] = test: Post-emergence test, damage to weeds; assay type: in vivo; conditions: test plants of 5-15 cm sprayed, rated after three weeks
Description: Solvent: 5 part by weight of acetone
as §1, §2
Test plants of a height of 5-15 cm are sprayed with the preparation of active compound such that the particular amounts of active compound desired are applied per unit area. The concentration of the spray liquor is chosen such that the particular amounts of active compound desired are applied in 1000 l of water/ha.
as §3

chromatographic logP [1]	Structure (SMILES)	activity against weeds (weeds [2])	activity against weeds (weeds [3])
1.41	CCn1ncc(C(=O)c2ccc(Cl)c(OCCNC(C)=O)c2Cl)c1O [Example I-2-1, N-(2-{2,6-dichloro-3-[(1-ethyl-5-hydroxy-1H-pyrazol-4-yl)-carbonyl]-phenoxy}-ethyl)-acetamide]	strong activity	strong activity
2.74	CC(C)NC(=S)NCc1c(Cl)ccc(C(=O)C2=C(O)CCCC2=O)c1Cl [Example I-2-3]	strong activity	strong activity
